Source: US8178658B2 (Dow AgroSciences, LLC, priority 2008, dated 2012)

How the values were obtained:
[1] = tested on: beet armyworm (BAW; Spodoptera exigua: Lepidoptera); assay: 128-well diet tray assay on beet armyworm (BAW 50); assay type: in vivo; settings: for BAW 50 ug/cm2: 128-well diet tray assay, 50 μg/cm^2 of test compound on diet, second instar BAW larvae, mortality class; for pest or weed control at 50 µg/cm2, 50 µg/cm2: Spodoptera exigua, 144 h, read-out: BAW 50 ug/cm2
In short: (§1)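 Mortality is the read-out for both formats, scored against a 50% cut-off. Microplate wells received eggs over diet carrying 12 μg test compound, kept in darkness at 29° C for 6 d, six replicates averaged. Diet-tray wells held second instar larvae on diet at 50 μg/cm^2, kept 6 d at 25° C under 14:10 photoperiod.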

[2] = tested on: beet armyworm (BAW; Spodoptera exigua: Lepidoptera); assay: 96-well microtiter plate-based high throughput (HTS) diet bioassay on beet armyworm (BAW HTS); assay type: in vivo; settings: for BAW HTS: BAW eggs, 12 μg test compound per well, mortality at 6 d post-treatment, mortality class; for pest or weed control at 12 µg/well, 12 µg/well: Spodoptera exigua, 144 h, read-out: BAW HTS
In short: as §1

[3] = 96-well microtiter plate HTS diet assay

SMILES | BAW 50 ug/cm2 [1] | BAW HTS ([2]; 96-well HTS diet assay) | BAW HTS [2, 3] | pest or weed control at 50 µg/cm2, 50 µg/cm2 [1] [%] | pest or weed control at 12 µg/well, 12 µg/well [2] [%]
CCO[C@@H]1[C@@H](OC)[C@H](C)O[C@H](OC(=O)Nc2ccc(C3CC(c4ccc(OC(F)(F)F)cc4)=NO3)cc2)[C@@H]1OC (stereo partly drawn) [Compound 184] | B (either (1) the compound was tested and less than 50 percent mortality was observed or (2) the compound was not tested) | B (either (1) the compound was tested and less than 50 percent mortality was observed or (2) the compound was not tested) | B (either (1) the compound was tested and less than 50 percent mortality was observed or (2) the compound was not tested) | – | –
CCO[C@@H]1[C@@H](OC)[C@H](C)O[C@@H](OC(=O)Nc2ccc(C3=NCC(c4ccc(OC(F)(F)F)cc4)O3)cc2)[C@@H]1OC (stereo partly drawn) [Compound 185] | B (either (1) the compound was tested and less than 50 percent mortality was observed or (2) the compound was not tested) | B (either (1) the compound was tested and less than 50 percent mortality was observed or (2) the compound was not tested) | B (either (1) the compound was tested and less than 50 percent mortality was observed or (2) the compound was not tested) | – | –
CCO[C@@H]1[C@@H](OC)[C@H](C)O[C@@H](OC(=O)Nc2ccc(C3COC(c4ccc(OC(F)(F)F)cc4)=N3)cc2)[C@@H]1OC (stereo partly drawn) [Compound 186] | A (the compound was tested and at least 50 percent mortality was observed) | B (either (1) the compound was tested and less than 50 percent mortality was observed or (2) the compound was not tested) | B (either (1) the compound was tested and less than 50 percent mortality was observed or (2) the compound was not tested) | – | –
CCO[C@@H]1[C@@H](OC)[C@H](C)O[C@@H](OC(=O)Nc2ccc(-n3ccn(-c4ccc(OC(F)(F)F)cc4)c3=O)cc2)[C@@H]1OC [Compound 187] | A (the compound was tested and at least 50 percent mortality was observed) | A (the compound was tested and at least 50 percent mortality was observed) | A (the compound was tested and at least 50 percent mortality was observed) | – | –
CCO[C@@H]1[C@@H](OC)[C@H](C)O[C@@H](OC(=O)Nc2ccc(N3CCN(c4ccc(OC(F)(F)F)cc4)C3=O)cc2)[C@@H]1OC [Compound 188] | A (the compound was tested and at least 50 percent mortality was observed) | B (either (1) the compound was tested and less than 50 percent mortality was observed or (2) the compound was not tested) | B (either (1) the compound was tested and less than 50 percent mortality was observed or (2) the compound was not tested) | – | –
CO[C@@H]1[C@@H](OC)[C@H](C)O[C@@H](OC(=O)Nc2ccc(-n3cnc(-c4ccc(C(F)(F)F)cc4)n3)cc2Cl)[C@@H]1OC [Compound 189, {2-chloro-4-[3-(4-trifluoromethylphenyl)-[1,2,4]triazol-1-yl]-phenyl}-carbamic acid (2S,3R,4R,5S,6S)-3,4,5-trimethoxy-6-methyl-tetrahydropyran-2-yl ester] | A (the compound was tested and at least 50 percent mortality was observed) | – | A (the compound was tested and at least 50 percent mortality was observed) | > 50 | > 50
CO[C@@H]1[C@@H](OC)[C@H](C)O[C@H](OC(=O)Nc2ccc(-n3cnc(-c4ccc(C(F)(F)F)cc4)n3)cc2Cl)[C@@H]1OC [Compound 190, {2-chloro-4-[3-(4-trifluoromethylphenyl)-[1,2,4]triazol-1-yl]-phenyl}-carbamic acid (2R,3R,4R,5S,6S)-3,4,5-trimethoxy-6-methyl-tetrahydropyran-2-yl ester] | A (the compound was tested and at least 50 percent mortality was observed) | – | A (the compound was tested and at least 50 percent mortality was observed) | > 50 | > 50
CO[C@@H]1[C@@H](OC)[C@H](C)O[C@@H](OC(=O)Nc2ccc(-c3ncn(-c4ccc(OC(F)(F)F)cc4)n3)cc2)[C@@H]1OC [Compound 191, {4-[1-(4-trifluoromethoxyphenyl)-1H-[1,2,4]triazol-3-yl]-phenyl}-carbamic acid (2S,3R,4R,5S,6S)-3,4,5-trimethoxy-6-methyl-tetrahydropyran-2-yl ester] | A (the compound was tested and at least 50 percent mortality was observed) | – | A (the compound was tested and at least 50 percent mortality was observed) | > 50 | > 50
CCO[C@@H]1[C@@H](OC)[C@H](C)O[C@@H](OC(=O)Nc2ccc(-c3ncn(-c4ccc(C(F)(F)F)cc4)n3)cc2)[C@@H]1OC [Compound 192] | A (the compound was tested and at least 50 percent mortality was observed) | A (the compound was tested and at least 50 percent mortality was observed) | A (the compound was tested and at least 50 percent mortality was observed) | – | –
CCO[C@@H]1[C@@H](OC)[C@H](C)O[C@@H](OC(=O)Nc2ccc(-c3ncn(-c4ccc(OC(F)(F)F)cc4)n3)cc2)[C@@H]1OC [Compound 193] | A (the compound was tested and at least 50 percent mortality was observed) | B (either (1) the compound was tested and less than 50 percent mortality was observed or (2) the compound was not tested) | B (either (1) the compound was tested and less than 50 percent mortality was observed or (2) the compound was not tested) | – | –
CO[C@@H]1[C@@H](OC)[C@H](C)O[C@@H](OC(=O)Nc2ccc(-c3nc(C)n(-c4ccc(OC(F)(F)F)cc4)n3)cc2)[C@@H]1OC [Compound 194] | A (the compound was tested and at least 50 percent mortality was observed) | A (the compound was tested and at least 50 percent mortality was observed) | A (the compound was tested and at least 50 percent mortality was observed) | – | –
CO[C@@H]1[C@@H](OC)[C@H](C)O[C@H](OC(=O)Nc2ccc(-c3nc(C)n(-c4ccc(OC(F)(F)F)cc4)n3)cc2)[C@@H]1OC [Compound 195] | A (the compound was tested and at least 50 percent mortality was observed) | B (either (1) the compound was tested and less than 50 percent mortality was observed or (2) the compound was not tested) | B (either (1) the compound was tested and less than 50 percent mortality was observed or (2) the compound was not tested) | – | –
CO[C@@H]1[C@@H](OC)[C@H](C)O[C@@H](OC(=O)Nc2ccc(-c3ncn(-c4ccc(Oc5ccc(Cl)cc5)cc4)n3)cc2)[C@@H]1OC [Compound 196] | A (the compound was tested and at least 50 percent mortality was observed) | A (the compound was tested and at least 50 percent mortality was observed) | A (the compound was tested and at least 50 percent mortality was observed) | – | –
CCCCO[C@@H]1[C@@H](OC)[C@H](C)O[C@@H](OC(=O)Nc2ccc(-n3cnc(-c4ccc(C)cc4)n3)cc2)[C@@H]1OC [Compound 197] | A (the compound was tested and at least 50 percent mortality was observed) | A (the compound was tested and at least 50 percent mortality was observed) | A (the compound was tested and at least 50 percent mortality was observed) | – | –
